# Bridge positions count the residues as written; N and C are the ends. Square brackets hold non-standard residues; d marks the D form. Ends that are not written are not given here.
# Tests used:
# [1] = system: rainbow trout leucocytes; details: cited from earlier work
# [2] = system: P0; test: Anti-P0 IgM response to P0-my32 in tilapia; format: in vivo, Oreochromis niloticus; details: i.p., day 28; for Anti-P0 IgM titer: P0-my32 1 μg/g co-administrated with 20 μg peptide, Montanide ISA 50, vs P0-my32
# From the text: (§1) The chimeric protein P0-my32 was generated by cloning the complementary deoxyribonucleic acid (cDNA) encoding a 35 amino acid peptide of the L. salmonis P0 ribosomal protein fused to the N-terminal end of the cDNA encoding the my32 protein of the same ectoparasite (Carpio et al., 2013; Exp. Parasitol 135: 188-199), in a vector designed for the induced expression of genes of interest in the host bacterium E. coli. This protein was produced in the bacterium and purified, as a fusion protein with a tail of histidine, by metal chelate affinity chromatography.
# (§2) For the accomplishment of the immunization experiment, 6 study groups of male juveniles of Oreochromis niloticus, were formed, with 15 animals each. In all groups, the immunogen was administered by i.p. route, adjuvanted with Montaide ISA 50.
# (§3) The experimental groups received the following immunogens:
# (§4) Group 2: P0-my32 (1 μg/g of fish weight)
# (§5) Group 3: P0-my32 (1 μg/g of fish weight) co-administrated with 20 μg GHRP-6
# (§6) Group 4: P0-my32 (1 μg/g of fish weight) co-administrated with 20 μg A233
# (§7) Group 5: P0-my32 (1 μg/g of fish weight). The fish in this group were fed with feed formulated with 100 μg of GHRP-6 per kg of feed, twice daily, for one week before and one week after the administration of my32 in injections.
# (§8) During the course of the experiment, the fish in groups 1 to 4 were fed twice daily with a balanced unmedicated commercial formula, at the rate of 1% of their body weight. Immunizations were performed on days 0 and 14 of the schedule. Blood samples were taken at days 0, 21, 28 and 35 from the start of the experiment.
# [3] = system: tilapia leukocytes; details: in vitro; cited from earlier work
# [4] = system: OVA; test: Humoral immune response against OVA in mice, A233 co-administered; format: in vivo, BALB/c mice; details: i.p.; 5 μg OVA + 10 μg A233/animal, Freund's adjuvant; vs OVA alone; day 22
# Protocol: To evaluate whether the peptide A233 exerts an adjuvant effect on OVA, 18 female BALB/c mice were used. Mice received 150 μL of immunogen in all groups, by i.p route, which was given to the animals on days 1 and 15 of the immunization schedule. Blood samples were taken at days 0 (preimmune serum), 8, 15, 22, 36, 43 and 50. The titers of total IgG present in the sera were evaluated. The animals were immunized with 5 μg OVA/animal and 10 μg A233/animal (Group 2), or with 5 μg of OVA/animal (Group 3). The control group was injected with PBS (Group 1). All immunogens were emulsified with Freund's adjuvant.
# [5] = system: tilapia larvae; details: immersion baths; cited from earlier work
# [6] = system: P0; test: Anti-P0 IgM response to P0-TT in clarias; format: in vivo, Clarias gariepinus; details: i.p.; P0-TT 1 μg/g + 20 μg peptide per animal, Montanide ISA 50; vs P0-TT without peptide; day 28
# Protocol: […]. For the experiment, 4 study groups of C. gariepinus were formed, with 12 animals in each one. These animals were immunized by i.p. route with 1 μg of the P0-TT protein per gram of animal weight (Group 2) or with the same dose of the chimeric protein P0-TT (1 μg/g of animal weight) co-administered with 20 μg of either GHRP-6 or A233 per animal (Groups 3 and 4, respectively), in a total volume of 120 μL. The control group (Group 1) received the same volume of PBS. The immunogens corresponding to all groups were emulsified with Montanide ISA 50 oily adjuvant. The immunization was performed under the same conditions, on days 0 and 14 of the administration schedule. Blood samples were taken at days 0, 21, 28 and 35 counted from the start of the experiment.
# [7] = system: my32; test: Anti-my32 IgM response to P0-my32 in tilapia; format: in vivo, Oreochromis niloticus; details: i.p., day 28; for Anti-my32 IgM antibody titers: P0-my32 1 μg/g co-administrated with 20 μg peptide, Montanide ISA 50, vs P0-my32
# From the text: as §1, §2, §3, §4, §5, §6, §7, §8
# [8] = system: activated macrophages; details: mouse, in vivo; cited from earlier work
# [9] = system: newly hatching chickens; details: dose of 100 ng in ovo, day 10 of incubation; cited from earlier work
# [10] = system: Aeromonas hydrophila; test: Agglutinating antibodies against Aeromonas hydrophila in common carp; format: in vivo, Cyprinus carpio; details: i.p.; inactivated cells 1×10^8 CFU + 20 μg GHRP-6/fish + Montanide ISA 50; vs bacterium without GHRP-6; day 21
# Protocol: The experiment was carried out with carps (C. carpio) of 40±10 g. These animals were kept in 600 L aquaria, at a temperature of 28±2° C. Three experimental groups, of 10 carps each, were established and injected by i.p. route with the following immunogens:
# Group 1: PBS+Montanide ISA 50.
# Group 2: Inactivated A. hydrophila cells (1×10^8 Colony Forming Units, abbreviated CFU)+Montanide ISA 50.
# (§9) Group 3: Inactivated A. hydrophila cells (1×10^8 CFU)+20 μg GHRP-6/fish+Montanide ISA 50.
# Fish were injected on days 0 and 14, and blood samples were collected from the caudal vein on days 0 and 21. […] The preparation of A. hydrophila cells and the measurement of antibody titers were performed according to previous reports (Yin et al. ((1996) Fish & Shellfish Immunol. 6, 57-69).
# [11] = system: peptide P0 of R. sanguineus; test: Humoral immune response against peptide P0 of R. sanguineus in mice, GHRP-6 co-administered; format: in vivo, BALB/c mice; details: i.p.; 100 μg P0 + 200 μg GHRP-6, Freund's adjuvant; vs P0 without GHRP-6; day 36
# Protocol: The peptide P0 is a fragment corresponding to the region of less sequence identity between the ribosomal protein P0 of the tick R. sanguineus and its mammalian host. To evaluate the humoral immune response stimulated by the co-administration of GHRP-6 and P0, 24 female, 6-week old BALB/c mice were selected and divided into three groups of 8 mice. Each animal received 150 μL of immunogen, by i.p route, on days 1, 15 and 29 of the immunization schedule. In the first immunization FCA was employed, and FIA was used in the other two administrations.
# Group 3. 100 μg of P0 co-administrated with 200 μg of GHRP-6.
# Blood samples were taken on days 0 (pre-immune serum), 8, 16, 21, 28, 36, 43, 50 and 58, to determine the levels of total IgG.
# [12] = system: C2 antigen, a Dengue virus capsid protein; test: Humoral immune response against C2 antigen in mice, GHRP-6 co-administered; format: in vivo, BALB/c mice; details: s.c.; 10 μg C2 + 10 μg GHRP-6, aluminum hydroxide; vs C2 without GHRP-6; day 28
# Protocol: The C2 antigen, a Dengue virus capsid protein, was obtained as a recombinant protein in Escherichia coli, with a molecular weight of 15 kDa. To evaluate the humoral and cellular immune response in mice vaccinated with C2, in presence or absence of GHRP-6, 24 female BALB/c mice, 6-weeks old, were selected. They were distributed into 3 groups. Each animal was given an immunogen, according to the experimental group:
# Group 2: 10 μg C2 co-administrated with 10 μg GHRP-6
# In all groups, the immunogens further comprised aluminum hydroxide, also known as alum. Immunizations were performed by s.c route, on days 0, 15 and 30 of the immunization schedule. Blood samples were taken at days 0 (pre-immune), 7, 16, 21, 28 and 35, to assess total IgG titers.
# [13] = system: juvenile tilapia; details: orally fed; cited from earlier work
# [14] = system: OVA; test: Humoral immune response against OVA in mice, GHRP-6 co-administered; format: in vivo, BALB/c mice; details: for Total IgG titers against OVA: GHRP-6 10 μg + OVA 5 μg/animal, Freund's adjuvant, vs OVA without GHRP-6
# Protocol: Thirty-six female BALB/c mice were used. Six study groups, with 6 animals each, were separated. Three groups were immunized by s.c route and the rest of them were treated by i.p route. In all groups, the immunogens were emulsified with Freund's adjuvant.
# Group 1: Placebo (phosphate buffered saline, abbreviated PBS). s.c route.
# Group 2: Placebo (PBS). i.p. route.
# Group 3: GHRP-6 at 10 μg/animal and OVA at 5 μg/animal. s.c. route.
# Group 4 GHRP-6 at 10 μg/animal and OVA at 5 μg/animal. i.p route.
# Group 5: OVA 5 μg/animal. s.c. route.
# Group 6: OVA 5 μg/animal. i.p. route.
# Mice received 150 μL of the immunogen in all groups, which was administered to the animals on days 1 and 15 of the immunization schedule. Blood extractions were performed on days 0 (pre-immune serum), 8, 15, 22, 36, 43 and 50. Total IgG titers, IgG1 and IgG2a were evaluated. Complete Freund's Adjuvant (CFA) was used in the first immunization and Incomplete Freund's Adjuvant (IFA) in the next one. The animals of the group immunized with GHRP-6 and OVA, by s.c route, had higher titers (with statistical significance: p<0.05) than those of the group receiving OVA without GHRP-6, by the same route, on days 22, 36, 43 and 50 of the experiment (FIG. 1A). Animals injected with the same immunogens, but by i.p. route, had the same behavior on days 36 and 43 of the experiment (FIG. 1 B).
# [15] = system: Aeromonas hydrophila; test: Controlled challenge with Aeromonas hydrophila in immunized common carp; format: in vivo, Cyprinus carpio; details: challenge on day 21 by i.p injection of LD50 of the bacterium; mortality recorded for 7 days
# Protocol: The experiment was carried out with common carp (C. carpio) of 30±5 g. These animals were kept in 250 L aquaria, at a temperature of 30±2° C. Three experimental groups, of 20 carps each, were established and the animals were injected by i.p. route with:
# Group 1: PBS+Montanide ISA 50
# Group 2: Inactivated A. hydrophila cells (1×10^8 CFU)+Montanide ISA 50
# as §9
# Fish were injected on day 0 and 14. The challenge was performed on day 21, by i.p injection of the lethal dose 50 (LD50) of the bacterium, and the mortality in each group was recorded for 7 days. The relative survival rate (RSR) was calculated as: RSR(%)=(% mortality of controls−% mortality of treated animals)/(% mortality of controls)×100.
# [16] = Group 3 (with GHRP-6) vs Group 2
# [17] = serum of day 36, s.c and i.p routes, OVA with vs without GHRP-6
substance,measurement,setting,value
[D-Lys3]-GHRP-6,Production of reactive oxygen species (O^2′—) after prior incubation with antagonist,[1]; prior incubation before ghrelin,decreased
"A233: growth hormone secretagogue peptide, structural analogue of GHRP-6 (GKFDLSPEHQ; lactam 2-4 (inferred))",Anti-P0 IgM titer,[2],increase
same,"Production of indicators of phagocytic activity, such as superoxide anion",[3],stimulated
same,Anti-OVA antibody titers (total IgG),[4],significant increase
same,"Antioxidant defense, enzyme superoxide dismutase",[5],stimulates
same,Antiprotease activity,[5],stimulates
same,Lectin titers,[5],stimulates
same,Anti-P0 IgM antibody titers,[6],same effect
same,Anti-my32 IgM antibody titers,[7],increase
GHRP-2,Arthritis,[8],attenuated
same,Release of interleukin 6 (IL-6) from activated macrophages,[8],significantly inhibited
same,Release of nitric oxide from activated macrophages,[8],significantly inhibited
"ghrelin: endogenous ligand for the growth hormone secretagogues receptor (GHS-R) (GSSFLSPEHQRVQQRKESKKPPAKLQPR; ends and bridges not checked; UniProt Q9UBU3 24-51, looked up)",Levels of GH messenger ribonucleic acid,[1]; in vitro,increases
same,Production of superoxide anion,[1]; in vitro,increases
same,Superoxide dismutase,[1]; in vitro,increases
same,Arthritis,[8],attenuated
same,Release of interleukin 6 (IL-6) from activated macrophages,[8],significantly inhibited
same,Release of nitric oxide from activated macrophages,[8],significantly inhibited
same,"Count of heterophil, basophils and eosinophils, and heterophil/lymphocyte ratio",[9],increase
same,Lymphocytes,[9],decreased
"His-D-Trp-Ala-Trp-D-Phe-Lys-NH2 (H[dW]AW[dF]K-NH2) [GHRP-6, synthetic growth hormone releasing peptide, hexamer, used as molecular adjuvant]",Titers of agglutinating antibodies against A. hydrophila,[10],significantly higher
same,Anti-P0 IgG titers,[11],significant increase
same,"Number of anti-P0 responder animals, IgM titers greater than 1:1000",[2]; [16],higher
same,Anti-P0 IgM titer,[2],same effect
same,Anti-C2 IgG titer,[12],significant increase
same,Lectin titers,[13],increase
same,Number of intraepithelial lymphocytes of the gastric mucosa,[13],increase
same,Total IgG titers against OVA,"[14]; i.p. route, days 36 and 43",same behavior
same,IgG1/IgG2a,"[14]; intraperitoneal route, mean of the six animals in the group",significantly superior
same,Total IgG titers against OVA,"[14]; s.c. route, days 22, 36, 43 and 50, p<0.05",higher titers
same,IgG1 titers,[14]; [17],higher
same,IgG2a titers,[14]; [17],No significant differences
same,Anti-P0 IgM antibody titers,[6],increase
same,Relative survival rate (RSR),[15],95%
same,"Number of anti-my32 responder animals, IgM titers greater than 1:1000",[7]; [16],higher
same,Anti-my32 IgM antibody titers,[7],increase

# Reference: patent US11179455B2, “Use of a growth hormone secretagogue peptide as a vaccine adjuvant” (priority 2016, dated 2021)
